Source: patent US12655125B2 (SIRONAX LTD., priority 2020, dated 2026)
pEC50: −log10 of the molar value. Where two headings read alike, the source gives them in different places.

Tested on: HT-29 cells
Experiment: HT29 Cells 0FBS Assay In Vitro (TNF-α/SMAC mimetic/zVAD-FMK induced necroptosis, CellTiter-Glo cell viability)
Format: cell-based
Settings: Homo sapiens, HT-29 cells, FBS free medium, TNF-α (10 ng/ml), SMAC mimetic (6 uM), zVAD-FMK (10 μM), 20 hours, geometric mean EC50
How it was run: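 Viability was measured by ATP luminescence (CellTiter-Glo) after 20 h at 37° C of compound exposure in 10-point, 1:3 dilutions. Necroptosis in FBS-free HT-29 cultures was driven by a TNF-α (10 ng/ml), SMAC mimetic (6 μM) and zVAD-FMK (10 μM) cocktail. EC50 values are geometric means from duplicate curves.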

[1] = read-out: Cell activity (EC50) of Compounds 117-281
[2] = read-out: Cell activity (EC50) of Compounds 1-116

Cn1nc(CF)nc1-c1cc(OC2CN(C(=O)N3N=CC[C@H]3c3cc(F)cc(F)c3)C2)c(F)cn1 [compound 201, (S)-(5-(3,5-difluorophenyl)-4,5-dihydro-1H-pyrazol-1-yl)(3-((5-fluoro-2-(3-(fluoromethyl)-1-methyl-1H-1,2,4-triazol-5-yl)pyridin-4-yl)oxy)azetidin-1-yl)methanone]
pEC50 [1]: 7.00 to 10.00

Cc1cc(-c2cc(OC3CN(C(=O)N4N=CC[C@H]4c4cc(F)cc(F)c4)C3)c(F)cn2)n(C)n1 [compound 36, (S)-(5-(3,5-difluorophenyl)-4,5-dihydro-1H-pyrazol-1-yl)(3-((2-(1,3-dimethyl-1H-pyrazol-5-yl)-5-fluoropyridin-4-yl)oxy)azetidin-1-yl)methanone]
pEC50 [2]: 7.00 to 10.00

COC(=O)Cn1nc(C)c(-c2cc(OC3CN(C(=O)N4N=CC[C@H]4c4cc(F)cc(F)c4)C3)c(F)cn2)c1C [compound 118, methyl (S)-2-(4-(4-((1-(5-(3,5-difluorophenyl)-4,5-dihydro-1H-pyrazole-1-carbonyl)azetidin-3-yl)oxy)-5-fluoropyridin-2-yl)-3,5-dimethyl-1H-pyrazol-1-yl)acetate]
pEC50 [1]: 5.00 to 6.00

Cn1ncc(C(=O)NC2CC2)c1-c1cc(OC2CN(C(=O)N3N=CC[C@H]3c3cc(F)cc(F)c3)C2)c(F)cn1 [compound 134, (S)—N-cyclopropyl-5-(4-((1-(5-(3,5-difluorophenyl)-4,5-dihydro-1H-pyrazole-1-carbonyl)azetidin-3-yl)oxy)-5-fluoropyridin-2-yl)-1-methyl-1H-pyrazole-4-carboxamide]
pEC50 [1]: 7.00 to 10.00

Cn1ncc(N)c1-c1cc(OC2CN(C(=O)N3N=CC[C@H]3c3cc(F)cc(F)c3)C2)c(F)cn1 [compound 53, (S)-(3-((2-(4-amino-1-methyl-1H-pyrazol-5-yl)-5-fluoropyridin-4-yl)oxy)azetidin-1-yl)(5-(3,5-difluorophenyl)-4,5-dihydro-1H-pyrazol-1-yl)methanone]
pEC50 [2]: 7.00 to 10.00

Cc1c(-c2cc(OC3CN(C(=O)N4N=CC[C@H]4c4cc(F)cc(F)c4)C3)c(F)cn2)nn(C)c1C1=NCCN1 [compound 266, (S)-(5-(3,5-difluorophenyl)-4,5-dihydro-1H-pyrazol-1-yl)(3-((2-(5-(4,5-dihydro-1H-imidazol-2-yl)-1,4-dimethyl-1H-pyrazol-3-yl)-5-fluoropyridin-4-yl)oxy)azetidin-1-yl)methanone]
pEC50 [1]: 7.00 to 10.00

COCCNc1cnn(C)c1-c1cc(OC2CN(C(=O)N3N=CC[C@H]3c3cc(F)cc(F)c3)C2)c(F)cn1 [compound 56, (S)-(5-(3,5-difluorophenyl)-4,5-dihydro-1H-pyrazol-1-yl)(3-((5-fluoro-2-(4-((2-methoxyethyl)amino)-1-methyl-1H-pyrazol-5-yl)pyridin-4-yl)oxy)azetidin-1-yl)methanone]
pEC50 [2]: 7.00 to 10.00

CNC(=O)CNc1cnn(C)c1-c1cc(OC2CN(C(=O)N3N=CC[C@H]3c3cc(F)cc(F)c3)C2)c(F)cn1 [compound 61, (S)-2-((5-(4-((1-(5-(3,5-difluorophenyl)-4,5-dihydro-1H-pyrazole-1-carbonyl)azetidin-3-yl)oxy)-5-fluoropyridin-2-yl)-1-methyl-1H-pyrazol-4-yl)amino)-N-methylacetamide]
pEC50 [2]: 7.00 to 10.00

Cc1c(-c2cc(OC3CN(C(=O)N4N=CC[C@H]4c4cc(F)cc(F)c4)C3)c(F)cn2)nn(C)c1C(N)=O [compound 229, (S)-3-(4-((1-(5-(3,5-difluorophenyl)-4,5-dihydro-1H-pyrazole-1-carbonyl)azetidin-3-yl)oxy)-5-fluoropyridin-2-yl)-1,4-dimethyl-1H-pyrazole-5-carboxamide]
pEC50 [1]: 7.00 to 10.00

Cc1cnn(C)c1-c1ccc(F)c(OC2CN(C(=O)N3N=CC[C@H]3c3cc(F)cc(F)c3)C2)c1 [compound 112, (S)-(5-(3,5-difluorophenyl)-4,5-dihydro-1H-pyrazol-1-yl)(3-(5-(1,4-dimethyl-1H-pyrazol-5-yl)-2-fluorophenoxy)azetidin-1-yl)methanone]
pEC50 [2]: 7.00 to 10.00

Cc1c(-c2cc(OC3CN(C(=O)N4N=CC[C@H]4c4cc(F)cc(F)c4)C3)c(F)cn2)nn(C)c1C(=O)NC1CCC1 [compound 264, (S)—N-cyclobutyl-3-(4-((1-(5-(3,5-difluorophenyl)-4,5-dihydro-1H-pyrazole-1-carbonyl)azetidin-3-yl)oxy)-5-fluoropyridin-2-yl)-1,4-dimethyl-1H-pyrazole-5-carboxamide]
pEC50 [1]: 7.00 to 10.00

Cc1scnc1-c1ncc(F)c(OC2CN(C(=O)N3N=CC[C@H]3c3cc(F)cc(F)c3)C2)n1 [compound 12, (S)-(5-(3,5-difluorophenyl)-4,5-dihydro-1H-pyrazol-1-yl)(3-((5-fluoro-2-(5-methylthiazol-4-yl)pyrimidin-4-yl)oxy)azetidin-1-yl)methanone]
pEC50 [2]: 7.00 to 10.00

Cc1nn(-c2cc(OC3CN(C(=O)N4N=CC[C@H]4c4cc(F)cc(F)c4)C3)c(F)cn2)c(C)c1CN(C)C [compound 269, (S)-(5-(3,5-difluorophenyl)-4,5-dihydro-1H-pyrazol-1-yl)(3-((2-(4-((dimethylamino)methyl)-3,5-dimethyl-1H-pyrazol-1-yl)-5-fluoropyridin-4-yl)oxy)azetidin-1-yl)methanone]
pEC50 [1]: 7.00 to 10.00

Cn1nccc1-c1ccc(F)c(OC2CN(C(=O)N3N=CC[C@H]3c3cc(F)cc(F)c3)C2)n1 (stereo in doubt) [compound 1, (5-(3,5-difluorophenyl)-4,5-dihydro-1H-pyrazol-1-yl)(3-((3-fluoro-6-(1-methyl-1H-pyrazol-5-yl)pyridin-2-yl)oxy)azetidin-1-yl)methanone]
pEC50 [2]: 7.00 to 10.00

Cc1c(-c2cc(OC3CN(C(=O)N4N=CC[C@H]4c4cc(F)cc(F)c4)C3)c(F)cn2)nn(C)c1C(=O)O [compound 245, (S)-3-(4-((1-(5-(3,5-difluorophenyl)-4,5-dihydro-1H-pyrazole-1-carbonyl)azetidin-3-yl)oxy)-5-fluoropyridin-2-yl)-1,4-dimethyl-1H-pyrazole-5-carboxylic acid]
pEC50 [1]: 7.00 to 10.00

Cc1nn(-c2cc(OC3CN(C(=O)N4N=CC[C@H]4c4cc(F)cc(F)c4)C3)c(F)cn2)c(C)c1CCO [compound 259, (S)-(5-(3,5-difluorophenyl)-4,5-dihydro-1H-pyrazol-1-yl)(3-((5-fluoro-2-(4-(2-hydroxyethyl)-3,5-dimethyl-1H-pyrazol-1-yl)pyridin-4-yl)oxy)azetidin-1-yl)methanone]
pEC50 [1]: 7.00 to 10.00

Cn1nc(NC(=O)C2CC2)cc1-c1cc(OC2CN(C(=O)N3N=CC[C@H]3c3cc(F)cc(F)c3)C2)c(F)cn1 [compound 137, (S)—N-(5-(4-((1-(5-(3,5-difluorophenyl)-4,5-dihydro-1H-pyrazole-1-carbonyl)azetidin-3-yl)oxy)-5-fluoropyridin-2-yl)-1-methyl-1H-pyrazol-3-yl)cyclopropanecarboxamide]
pEC50 [1]: 7.00 to 10.00

Cc1c(-c2cc(OC3CN(C(=O)N4N=CC[C@H]4c4cc(F)cc(F)c4)C3)c(F)cn2)c(CO)nn1CC1COC1 [compound 169, (S)-(5-(3,5-difluorophenyl)-4,5-dihydro-1H-pyrazol-1-yl)(3-((5-fluoro-2-(3-(hydroxymethyl)-5-methyl-1-(oxetan-3-ylmethyl)-1H-pyrazol-4-yl)pyridin-4-yl)oxy)azetidin-1-yl)methanone]
pEC50 [1]: 5.00 to 6.00

Cc1n[nH]c(C)c1-c1ccc(F)c(OC2CN(C(=O)N3N=CC[C@H]3c3cc(F)cc(F)c3)C2)c1 [compound 198, (S)-(5-(3,5-difluorophenyl)-4,5-dihydro-1H-pyrazol-1-yl)(3-(5-(3,5-dimethyl-1H-pyrazol-4-yl)-2-fluorophenoxy)azetidin-1-yl)methanone]
pEC50 [1]: 7.00 to 10.00

Cc1nscc1-c1ccc(F)c(OC2CN(C(=O)N3N=CC[C@H]3c3cc(F)cc(F)c3)C2)n1 [compound 16, (S)-(5-(3,5-difluorophenyl)-4,5-dihydro-1H-pyrazol-1-yl)(3-((3-fluoro-6-(3-methylisothiazol-4-yl)pyridin-2-yl)oxy)azetidin-1-yl)methanone]
pEC50 [2]: 7.00 to 10.00

Cc1c(-c2cc(OC3CN(C(=O)N4N=CC[C@H]4c4cc(F)cc(F)c4)C3)c(F)cn2)nn(C)c1C(=O)NC1COC1 [compound 262, (S)-3-(4-((1-(5-(3,5-difluorophenyl)-4,5-dihydro-1H-pyrazole-1-carbonyl)azetidin-3-yl)oxy)-5-fluoropyridin-2-yl)-1,4-dimethyl-N-(oxetan-3-yl)-1H-pyrazole-5-carboxamide]
pEC50 [1]: 7.00 to 10.00

CN(C)C(=O)c1cc(-c2cc(OC3CN(C(=O)N4N=CC[C@H]4c4cc(F)cc(F)c4)C3)c(F)cn2)n(C)n1 [compound 171, (S)-5-(4-((1-(5-(3,5-difluorophenyl)-4,5-dihydro-1H-pyrazole-1-carbonyl)azetidin-3-yl)oxy)-5-fluoropyridin-2-yl)-N,N,1-trimethyl-11H-pyrazole-3-carboxamide]
pEC50 [1]: 7.00 to 10.00

Cn1ncc(C(=O)O)c1-c1cc(OC2CN(C(=O)N3N=CC[C@H]3c3cc(F)cc(F)c3)C2)c(F)cn1 [compound 65, (S)-5-(4-((1-(5-(3,5-difluorophenyl)-4,5-dihydro-1H-pyrazole-1-carbonyl)azetidin-3-yl)oxy)-5-fluoropyridin-2-yl)-1-methyl-1H-pyrazole-4-carboxylic acid]
pEC50 [2]: 5.00 to 6.00

COCc1cnn(C)c1-c1cc(OC2CN(C(=O)N3N=CC[C@H]3c3cc(F)cc(F)c3)C2)c(F)cn1 [compound 80, (S)-(5-(3,5-difluorophenyl)-4,5-dihydro-1H-pyrazol-1-yl)(3-((5-fluoro-2-(4-(methoxymethyl)-1-methyl-1H-pyrazol-5-yl)pyridin-4-yl)oxy)azetidin-1-yl)methanone]
pEC50 [2]: 7.00 to 10.00
